The values that follow come from patent US20050276764A1, “Topical use of bis-arylimidazo[1,2-a]thiolane derivatives” (Beiersdorf AG, priority 2002, published 2005).

What all share (assay type): cell-based
One series has as its system 3T3 cells. Nature of the series: 3T3 NRU Phototoxicity Assay (COLIPA Validation Ring Study 1997), neutral red absorption. Particulars: for NR50 irradiated / NR50 non-irradiated: 3T3 cells, concentration at which neutral red absorption has fallen to 50% of the check value; for NR50 irradiated: UV-irradiated cultures; for NR50 non-irradiated: non-irradiated cultures; for Phototoxicity in comparison to the non-oxidized comparative compound: photocytotoxicity tests, versus 4,5-bis(4-methoxyphenyl)-imidazo[1,2-a]thiolane; for Quotient non-irradiated/irradiated PIF: ratio of NR50 non-irradiated to irradiated, the lower the quotient, the lower the phototoxicity. How it is done:
The photocytotoxicity of 4,5-bis(4-methoxyphenyl)-imidazo[1,2-a]thiolane-1-oxide and 4,5-bis(4-methoxyphenyl)-imidazo[1,2-a]thiolane-1-dioxide in comparison to 4,5-bis(4-methoxyphenyl)-imidazo[1,2-a]thiolane according to standard protocol “3T3 NRU Phototoxicity Assay” of the COLIPA Validation Ring Study of 1997 is shown in FIG. 1.
In the test method used, the change to the neutral red absorption of 3T3 cells is measured by UV irradiation. Only vital cells absorb the dye, a reduced absorption thus indicates a toxicity of the test substance added. The so-called NR50 value is typically determined for evaluation, i.e. those concentrations of the test substance for which the neutral red absorption has fallen to 50% of the check value. In order to determine the phototoxicity, this value is determined for non-irradiated and irradiated cultures and put in a ratio. The lower the quotient, the lower the phototoxicity (see Table 1).

In series [1] the test system is prostaglandin E2 (PGE2) production in human fibroblasts stimulated with LPS. Nature of the series: Inhibition of LPS-induced PGE2 production in human fibroblasts. Particulars: for Inhibition of PGE2 production: human fibroblasts, LPS-stimulated, supernatant PGE2 24 hours later, FIG. 2. As to the method:
The influence of 4,5-bis(4-methoxyphenyl)-imidazo[1,2-a]thiolane-1-oxide and 4,5-bis(4-Methoxyphenyl)-imidazo[1,2-a]thiolane-1-dioxide in comparison to 4,5-bis(4-methoxyphenyl)-imidazo[1,2-a]thiolane on eicosanoid production is illustrated in FIG. 2. For the samples in FIG. 2, human fibroblasts were stimulated with LPS and 24 hours later the supernatant PGE2 content was determined. Either Diclofenac with standard effects or dilutions of DKH derivatives were added to the LPS-stimulated cultures. Non-stimulated cultures and cultures only stimulated with LPS were measured as a control test.
Human fibroblasts in culture were induced to release prostaglandin E2 (PGE2) by means of lipopolysaccharide (LPS). Inhibition of this PGE2 production by imidazoles was then determined in the test.

The test system of series [2] is LTB4 release by human neutrophile granulocytes stimulated with fMLP. The series is described as follows: Release of LTB4 by fMLP-stimulated human neutrophile granulocytes. Particulars: for Inhibition of LTB4 release: human neutrophile granulocytes, fMLP-stimulated, supernatant LTB4 2 hours later, FIG. 3. How it is done: A second test method was used to determine the influence of imidazoles on the release of LTB4 by stimulated granulocytes. Human neutrophile granulocytes from the peripheral blood were isolated, cultured and stimulated for LTB4 production with formylated methionyl-leucyl-phenylalanine (fMLP). Specifically, human neutrophile granulocytes were stimulated with fMLP and 2 hours later the supernatant LTB4 content was determined. Either BayX1005 with standard effects or dilutions of DKH derivatives were added to the fMLP-stimulated cultures. Non-stimulated cultures and cultures only stimulated with fMLP were measured as a control test.

Regarding `COc1ccc(-c2nc3n(c2-c2ccc(OC)cc2)CC[S+]3[O-])cc1` (stereo not shown) [4,5-bis(4-methoxyphenyl)-imidazo[1,2-a]thiolane-1-oxide], in the series on 3T3 cells, the NR50 irradiated was over 42.3 mg/L, the NR50 non-irradiated was over 100 mg/L, the “Phototoxicity in comparison to the non-oxidized comparative compound” value is on record as “considerably reduced phototoxicity” and the “Quotient non-irradiated/irradiated PIF” value is over 2.4. For the same compound, in series [1], the “Production of prostaglandin E2 in fibroblasts” value is reported as “considerably reduced” and the “Inhibition of PGE2 production” value is “sufficient inhibition in the concentration range below one microgram per millimeter”. Moreover, in series [2], the “Production of leukotriene B4 in granulocytes” value was “considerably reduced” and the “Inhibition of LTB4 release” value is “improved inhibition of LTB4 release”.

In the case of `COc1ccc(-c2nc3n(c2-c2ccc(OC)cc2)CCS3)cc1` [4,5-bis(4-methoxyphenyl)-imidazo[1,2-a]thiolane, reference compound], in the series with 3T3 cells, the NR50 irradiated was found to be 0.177 mg/L, the NR50 non-irradiated is over 10 mg/L and the “Quotient non-irradiated/irradiated PIF” value was over 56.

On to `COc1ccc(-c2nc3n(c2-c2ccc(OC)cc2)CCS3(=O)=O)cc1` [4,5-bis(4-methoxyphenyl)-imidazo[1,2-a]thiolane-1-dioxide], for which, in the series on 3T3 cells, the NR50 irradiated is 7.77 mg/L, the NR50 non-irradiated is over 50 mg/L, the “Phototoxicity in comparison to the non-oxidized comparative compound” value is listed as “considerably reduced phototoxicity” and the “Quotient non-irradiated/irradiated PIF” value is listed as over 6.4. For the same compound, in series [1], the “Production of prostaglandin E2 in fibroblasts” value is on record as “considerably reduced” and the “Inhibition of PGE2 production” value is listed as “sufficient inhibition in the concentration range below one microgram per millimeter”. Further, in series [2], the “Production of leukotriene B4 in granulocytes” value was “considerably reduced” and the “Inhibition of LTB4 release” value is “improved inhibition of LTB4 release”.
